US20260097022A1, “COMPOUNDS AND USES THEREOF” (Integrated Biosciences, Inc., priority 2023, published 2026)

Test system: etoposide-treated IMR-90 cells
Assay: Etoposide-induced senescence model, resazurin cell viability (screen and dose-response)
Format: cell-based, human
Conditions: etoposide-induced senescence model; ratio of IC50 values between etoposide- and DMSO-treated IMR-90 fibroblasts
Method: Cell culture. Human lung fibroblast (IMR-90) cells were obtained from ATCC (CCL-186) and passaged less than 10 times (less than 30 population doublings) for all experiments described in this example, with the exception of high-passage cells used in the model of replicative senescence (see the section on Replicative senescence below). Cells were cultured in growth media comprising Eagle's Minimum Essential Medium (EMEM: ATCC 30-2003) supplemented with 10% fetal bovine serum (FBS: Thermo Fisher 16140071) and 1% penicillin-streptomycin (Thermo Fisher 15070063). Cells were incubated in a humidity-controlled incubator at 37° C., with 5% CO2. Cells were detached using trypsin-EDTA (0.05%; Gibco 25300120).
Etoposide-induced senescence. IMR-90 cells were cultured as described above. At between 30 to 50% confluence, the media was replaced with complete growth media containing vehicle (0.5% dimethyl sulfoxide: DMSO, MilliporeSigma D5879) or complete growth media containing 50 μM etoposide (prepared as a 1:200 dilution of a 10 mM stock solution in DMSO; etoposide, MilliporeSigma E1383). Cells were treated for 2 days, after which the media was replaced with fresh growth media and cells were allowed to recover for 4 days. Cells were then plated as described below.
Chemical screening. For all screening experiments. 99 μL of cells were plated into each well of a 96-well clear flat-bottom, black polystyrene tissue-culture-treated plate (Corning 3904) at a density of ˜10+ cells/well. Plates were incubated overnight for adhesion. The day after plating. 1 μL of each compound, prepared as either a 1 mM stock solution in DMSO (10 μM final concentration screen) or 0.1 mM stock solution in DMSO (1 μM final concentration screen), was added to each well using an Agilent Bravo liquid handler. A built-in slow mixing step involving aspirating and dispensing was used to enhance distribution of the added compounds in solution. Cells were incubated for 3 days, after which resazurin (MilliporeSigma R^7017) was added to each well to a final concentration of 0.15 mM. After an additional 1 day of incubation, the fluorescence excitation/emission at 550/590 nm was read using a SpectraMaxR M3 plate reader and manufacturer software (SoftMax Pro R 6). Experiments were performed in biological duplicate.
Three-fold serial dilutions of compound were prepared in DMSO, then added to cell plates (final concentration of DMSO. 1%). Cell viability was then assayed as detailed above, and resazurin fluorescence values were linearly interpolated with respect to values from empty and positive control (non-treatment) wells. Experiments were performed in biological duplicate each on two independent occasions. When possible, chemical stocks from commercial suppliers were used: econazole nitrate (Cayman Chemical 20223), artenimol (Cayman Chemical 19846), and ABT-263 (Cayman Chemical 11500) were from Cayman Chemical, and dehydrodeguelin was aliquoted from the screening library.
Calculation of cellular viability values in dose-response curves. […] For each sample, the fluorescence intensity value was normalized by the mean of two untreated control values. Cellular viability values are therefore indicated as fractions of the cellular viability of untreated controls. Vehicle (1% DMSO) control values are included in each dose-response curve. Experiments were performed in biological duplicate each on two independent occasions.
Calculation of baseline cellular viability values. […] Additionally, baseline cellular viability values were calculated for untreated cells at the start of the experiment. Resazurin was added to a final concentration of 0.15 mM on the day of seeding (corresponding to day 0 in FIG. 7).

COc1ccccc1C(=O)Nc1ccc2nc(SCC(=O)Nc3c(C)cc(C)cc3C)sc2c1 [compound 44]
Therapeutic Index (TI): ++ (compounds with a TI of 1 to 5 were labelled as ++)

COc1cccc(C(=O)Nc2ccc3nc(SCC(=O)N(C)c4ccccc4)sc3c2)c1 [compound 45]
Therapeutic Index (TI): ++ (compounds with a TI of 1 to 5 were labelled as ++)

Cc1ccc(Cl)cc1NC(=O)CSc1nc2ccc(NC(=O)c3ccccc3C)cc2s1 [compound 46]
Therapeutic Index (TI): ++ (compounds with a TI of 1 to 5 were labelled as ++)

CCOc1ccc(C(=O)Nc2ccc3nc(SCC(=O)Nc4ccc(C)cc4C)sc3c2)cc1 [compound 47]
Therapeutic Index (TI): ++ (compounds with a TI of 1 to 5 were labelled as ++)

COc1ccc(NC(=O)CSc2nc3ccc(NC(=O)c4cccc(F)c4)cc3s2)cc1 [compound 48]
Therapeutic Index (TI): ++ (compounds with a TI of 1 to 5 were labelled as ++)

CCOc1ccc(C(=O)Nc2ccc3nc(SCC(=O)N(C)c4ccccc4)sc3c2)cc1 [compound 49]
Therapeutic Index (TI): ++ (compounds with a TI of 1 to 5 were labelled as ++)

CCCCOc1ccc(NC(=O)CSc2nc3ccc(NC(=O)c4ccccc4Br)cc3s2)cc1 [compound 50]
Therapeutic Index (TI): ++ (compounds with a TI of 1 to 5 were labelled as ++)

O=C(CSc1nc2ccc(NC(=O)c3ccc(F)cc3)cc2s1)Nc1cccc(Cl)c1 [compound 51]
Therapeutic Index (TI): ++ (compounds with a TI of 1 to 5 were labelled as ++)

COc1ccc(NC(=O)CSc2nc3ccc(NC(=O)c4ccccc4C)cc3s2)cc1 [compound 52]
Therapeutic Index (TI): ++ (compounds with a TI of 1 to 5 were labelled as ++)

COc1cccc(C(=O)Nc2ccc3nc(SCC(=O)Nc4ccccc4)sc3c2)c1 [compound 53]
Therapeutic Index (TI): ++ (compounds with a TI of 1 to 5 were labelled as ++)

CCCCOc1ccc(NC(=O)CSc2nc3ccc(NC(=O)c4cccc5ccccc45)cc3s2)cc1 [compound 54]
Therapeutic Index (TI): ++ (compounds with a TI of 1 to 5 were labelled as ++)

COc1ccc(NC(=O)CSc2nc3ccc(NC(=O)c4cccc(C)c4)cc3s2)cc1 [compound 55]
Therapeutic Index (TI): ++ (compounds with a TI of 1 to 5 were labelled as ++)

Cc1ccc(C(=O)Nc2ccc3nc(SCC(=O)Nc4ccccc4F)sc3c2)cc1 [compound 56]
Therapeutic Index (TI): ++ (compounds with a TI of 1 to 5 were labelled as ++)

COc1ccc(NC(=O)CSc2nc3ccc(NC(=O)c4ccccc4)cc3s2)cc1 [compound 57]
Therapeutic Index (TI): ++ (compounds with a TI of 1 to 5 were labelled as ++)

Cc1cc(C)c(NC(=O)CSc2nc3ccc(NC(=O)c4ccccc4Cl)cc3s2)c(C)c1 [compound 58]
Therapeutic Index (TI): ++ (compounds with a TI of 1 to 5 were labelled as ++)

COc1ccccc1C(=O)Nc1ccc2nc(SCC(=O)Nc3c(C)cccc3C)sc2c1 [compound 59]
Therapeutic Index (TI): ++ (compounds with a TI of 1 to 5 were labelled as ++)

COc1ccc(C(=O)Nc2ccc3nc(SCC(=O)Nc4ccccc4C)sc3c2)cc1 [compound 60]
Therapeutic Index (TI): ++ (compounds with a TI of 1 to 5 were labelled as ++)

Cc1ccc(Cl)cc1NC(=O)CSc1nc2ccc(NC(=O)c3ccc(F)cc3)cc2s1 [compound 61]
Therapeutic Index (TI): ++ (compounds with a TI of 1 to 5 were labelled as ++)

O=C(CSc1nc2ccc(NC(=O)c3ccc(Cl)cc3)cc2s1)Nc1ccc(F)cc1 [compound 62]
Therapeutic Index (TI): ++ (compounds with a TI of 1 to 5 were labelled as ++)

COc1ccc(C(=O)Nc2ccc3nc(SCC(=O)Nc4ccccc4Cl)sc3c2)cc1 [compound 63]
Therapeutic Index (TI): ++ (compounds with a TI of 1 to 5 were labelled as ++)

CCOc1ccc(C(=O)Nc2ccc3nc(SCC(=O)Nc4ccccc4Cl)sc3c2)cc1 [compound 64]
Therapeutic Index (TI): ++ (compounds with a TI of 1 to 5 were labelled as ++)

CCC(Sc1nc2ccc(NC(=O)c3ccc(C)cc3)cc2s1)C(=O)Nc1ccc(Cl)cc1 (stereo not drawn) [compound 65]
Therapeutic Index (TI): ++ (compounds with a TI of 1 to 5 were labelled as ++)

COc1ccc(NC(=O)CSc2nc3ccc(NC(=O)c4ccccc4Cl)cc3s2)cc1 [compound 66]
Therapeutic Index (TI): ++ (compounds with a TI of 1 to 5 were labelled as ++)

COC(=O)c1ccccc1NC(=O)CSc1nc2ccc(NC(=O)c3ccccc3C)cc2s1 [compound 67]
Therapeutic Index (TI): ++ (compounds with a TI of 1 to 5 were labelled as ++)

O=C(CSc1nc2ccc(NC(=O)c3ccccc3)cc2s1)Nc1cccc(C(F)(F)F)c1 [compound 68]
Therapeutic Index (TI): ++ (compounds with a TI of 1 to 5 were labelled as ++)

CCc1cccc(CC)c1NC(=O)CSc1nc2ccc(NC(=O)c3ccccc3C)cc2s1 [compound 69]
Therapeutic Index (TI): ++ (compounds with a TI of 1 to 5 were labelled as ++)

Cc1cccc(C(=O)Nc2ccc3nc(SCC(=O)Nc4cc(Cl)ccc4C)sc3c2)c1 [compound 70]
Therapeutic Index (TI): ++ (compounds with a TI of 1 to 5 were labelled as ++)

COc1ccccc1C(=O)Nc1ccc2nc(SCC(=O)N(C)c3ccccc3)sc2c1 [compound 71]
Therapeutic Index (TI): ++ (compounds with a TI of 1 to 5 were labelled as ++)

Cc1cc(C)c(NC(=O)CSc2nc3ccc(NC(=O)c4ccccc4C)cc3s2)c(C)c1 [compound 72]
Therapeutic Index (TI): ++ (compounds with a TI of 1 to 5 were labelled as ++)

Cc1ccccc1C(=O)Nc1ccc2nc(SCC(=O)Nc3ccc([N+](=O)[O-])cc3)sc2c1 [compound 73]
Therapeutic Index (TI): ++ (compounds with a TI of 1 to 5 were labelled as ++)

COc1ccc(C(=O)Nc2ccc3nc(SCC(=O)Nc4ccc(C)c(Cl)c4)sc3c2)cc1 [compound 74]
Therapeutic Index (TI): ++ (compounds with a TI of 1 to 5 were labelled as ++)

Cc1ccccc1C(=O)Nc1ccc2nc(SCC(N)=O)sc2c1 [compound 75]
Therapeutic Index (TI): ++ (compounds with a TI of 1 to 5 were labelled as ++)

CCCCOc1ccc(C(=O)Nc2ccc3nc(SCC(=O)Nc4ccccc4)sc3c2)cc1 [compound 76]
Therapeutic Index (TI): ++ (compounds with a TI of 1 to 5 were labelled as ++)

CCCCOc1ccc(NC(=O)CSc2nc3ccc(NC(=O)c4ccc(Cl)cc4)cc3s2)cc1 [compound 77]
Therapeutic Index (TI): ++ (compounds with a TI of 1 to 5 were labelled as ++)

CCCCOc1ccc(C(=O)Nc2ccc3nc(SCC(=O)Nc4ccc(C(C)=O)cc4)sc3c2)cc1 [compound 78]
Therapeutic Index (TI): ++ (compounds with a TI of 1 to 5 were labelled as ++)

COc1ccc(NC(=O)CSc2nc3ccc(NC(=O)c4cccc(Cl)c4)cc3s2)cc1 [compound 79]
Therapeutic Index (TI): ++ (compounds with a TI of 1 to 5 were labelled as ++)

CCOc1ccc(C(=O)Nc2ccc3nc(SCC(=O)Nc4cccc(C)c4)sc3c2)cc1 [compound 80]
Therapeutic Index (TI): ++ (compounds with a TI of 1 to 5 were labelled as ++)

Cc1ccc(C(=O)Nc2ccc3nc(SCC(=O)N(C)c4ccccc4)sc3c2)cc1 [compound 81]
Therapeutic Index (TI): ++ (compounds with a TI of 1 to 5 were labelled as ++)

CCCCOc1ccc(C(=O)Nc2ccc3nc(SCC(=O)Nc4ccc(C(C)C)cc4)sc3c2)cc1 [compound 82]
Therapeutic Index (TI): ++ (compounds with a TI of 1 to 5 were labelled as ++)

COc1ccc(C(=O)Nc2ccc3nc(SCC(=O)Nc4cccc(C)c4)sc3c2)cc1 [compound 83]
Therapeutic Index (TI): ++ (compounds with a TI of 1 to 5 were labelled as ++)

COc1ccccc1C(=O)Nc1ccc2nc(SCC(=O)Nc3ccc(F)cc3)sc2c1 [compound 84]
Therapeutic Index (TI): ++ (compounds with a TI of 1 to 5 were labelled as ++)

COc1ccc(NC(=O)CSc2nc3ccc(NC(=O)c4ccc(OC)cc4)cc3s2)cc1 [compound 85]
Therapeutic Index (TI): ++ (compounds with a TI of 1 to 5 were labelled as ++)

CCCCOc1ccc(NC(=O)CSc2nc3ccc(NC(=O)c4ccc(OCCCC)cc4)cc3s2)cc1 [compound 86]
Therapeutic Index (TI): ++ (compounds with a TI of 1 to 5 were labelled as ++)

O=C(CSc1nc2ccc(NC(=O)c3ccccc3)cc2s1)Nc1cccc([N+](=O)[O-])c1 [compound 87]
Therapeutic Index (TI): ++ (compounds with a TI of 1 to 5 were labelled as ++)

Cc1ccc(NC(=O)CSc2nc3ccc(NC(=O)c4ccccc4)cc3s2)c(C)c1 [compound 88]
Therapeutic Index (TI): ++ (compounds with a TI of 1 to 5 were labelled as ++)
